Results as given in patent US9261497B2, “Method of treating cancer with modulators of SCFSkp2” (New York University, priority 2012, dated 2016).

Experiments:
Skp2-p27 interaction = molecular target: T1, Skp2-p27 interaction (Homo sapiens, UniProt P61024+Q13309); experiment: p27 binding to HA-Skp2 (HA-immunoprecipitation); conditions: for p27 binding to Skp2: 10 μM, HA-Skp2 and Cks1 pretreated before p27-pT187, without ubiquitylation
T1 construct: made in house; host or cells: cell-free: rabbit reticulocyte lysate (TNT T7 Coupled Reticulocyte Lysate System, Promega) from pcDNA3.1 plasmids
T1 sequence (Q13309 whole entry): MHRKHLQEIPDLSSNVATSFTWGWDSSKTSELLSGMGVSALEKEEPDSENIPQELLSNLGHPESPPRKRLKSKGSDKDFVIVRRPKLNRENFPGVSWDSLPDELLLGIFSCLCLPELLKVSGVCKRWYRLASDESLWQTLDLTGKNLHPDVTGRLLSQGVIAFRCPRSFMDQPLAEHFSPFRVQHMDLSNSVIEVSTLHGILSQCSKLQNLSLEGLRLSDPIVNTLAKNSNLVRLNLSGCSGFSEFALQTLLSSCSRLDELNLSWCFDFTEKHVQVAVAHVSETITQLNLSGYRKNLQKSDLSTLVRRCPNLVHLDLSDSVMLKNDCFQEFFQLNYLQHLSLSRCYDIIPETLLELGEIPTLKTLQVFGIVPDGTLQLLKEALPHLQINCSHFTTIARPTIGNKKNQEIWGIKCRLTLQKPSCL
T1 sequence (P61024 whole entry): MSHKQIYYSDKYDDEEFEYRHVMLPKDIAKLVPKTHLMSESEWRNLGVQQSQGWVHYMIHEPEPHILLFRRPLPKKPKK
T1 sequence (P63208 whole entry partner): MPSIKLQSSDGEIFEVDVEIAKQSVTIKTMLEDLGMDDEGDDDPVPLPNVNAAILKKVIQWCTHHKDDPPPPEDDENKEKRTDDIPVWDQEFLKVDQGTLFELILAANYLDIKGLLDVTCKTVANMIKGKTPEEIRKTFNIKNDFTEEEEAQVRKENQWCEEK
T1 sequence (Q13616 whole entry partner): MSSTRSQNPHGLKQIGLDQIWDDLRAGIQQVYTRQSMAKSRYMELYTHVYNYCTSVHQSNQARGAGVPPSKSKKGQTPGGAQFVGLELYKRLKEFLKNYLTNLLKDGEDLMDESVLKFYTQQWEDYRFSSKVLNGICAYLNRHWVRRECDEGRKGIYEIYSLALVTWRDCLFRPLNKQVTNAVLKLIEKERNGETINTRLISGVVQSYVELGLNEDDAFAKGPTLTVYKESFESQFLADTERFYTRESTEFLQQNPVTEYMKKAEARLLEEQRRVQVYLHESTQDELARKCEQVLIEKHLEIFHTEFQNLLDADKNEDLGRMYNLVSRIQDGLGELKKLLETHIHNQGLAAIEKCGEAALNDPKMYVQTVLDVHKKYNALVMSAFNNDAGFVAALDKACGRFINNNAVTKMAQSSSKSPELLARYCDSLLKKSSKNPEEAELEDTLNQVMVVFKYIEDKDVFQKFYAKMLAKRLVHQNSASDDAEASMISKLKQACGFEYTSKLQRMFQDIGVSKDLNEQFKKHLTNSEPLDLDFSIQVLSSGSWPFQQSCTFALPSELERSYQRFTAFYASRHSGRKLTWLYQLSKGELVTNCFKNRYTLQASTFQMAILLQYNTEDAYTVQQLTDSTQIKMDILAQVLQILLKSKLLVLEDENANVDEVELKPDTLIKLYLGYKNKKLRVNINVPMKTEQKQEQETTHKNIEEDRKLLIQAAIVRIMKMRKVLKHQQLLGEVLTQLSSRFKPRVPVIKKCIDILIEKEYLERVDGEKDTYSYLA
T1 sequence (P62877 whole entry partner): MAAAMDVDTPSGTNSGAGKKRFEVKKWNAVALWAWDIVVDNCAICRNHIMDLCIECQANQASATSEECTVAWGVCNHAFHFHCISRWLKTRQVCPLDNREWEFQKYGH
Method: (§1) In vitro ubiquitylation assays were incubated with anti-HA affinity matrix (Roche) in IP buffer (50 mM Tris pH 7.6, 150 mM NaCl, 0.1% NP40, and Roche Complete EDTA-free protease tablet) for 16 h at 4° C. Beads were washed 3× with IP buffer and eluted with 2×SDS Sample Buffer (Boston Bioproducts) and 10% Beta-mercaptoethanol. For binding without ubiquitylation, HA-Skp2 IVT (10 μl) and Cks1 IVT (10 μl) were preincubated with anti-HA affinity matrix in IP buffer for 2 hours, with the addition of p27 kinase reaction (10 μl) for another 16 h incubation at 4° C. All reactions were analyzed after SDS/PAGE by western blotting. Where indicated, Skp2 and Cks1 were pretreated with 10 μM inhibitors for 30 minutes. Kinase reactions were performed with p27 IVT (10 μl) and 0.5 μg/ul CyclinE/CDK2 in kinase buffer (50 mM Tris HCL pH 7.5, 10 mM MgCl2, 2 mM ATP, 2.5 μM Okadaic Acid, and 0.6 mM DTT) at 30° C. for 1 h.

501 Mel cells = experiment: Cell cycle FACS analysis, 501 Mel; format: cell-based, human; conditions: shEmpty 501 Mel; 10 μM for 16 hours
Method: Whole cell extracts were prepared and immunoblotted as previously described Dorrello et al., “S6K1- and betaTRCP-mediated Degradation of PDCD4 Promotes Protein Translation and Cell Growth,” Science 314:467-471 (2006), which is hereby incorporated by reference in its entirety. For knockdown of Skp2 or p27, shRNAs were induced with 2 ng/ml doxycycline for 48 hours, with the last 16 hours co-treated with 0.1% Vehicle or 10 μM inhibitors as indicated. For cycloheximide chase, cells were pretreated 16 h with 0.1% Vehicle or 10 μM inhibitors, followed by 20 ng/ml cycloheximide (Sigma) and whole cell extracts collected for each time point. Scanning densitometry was performed on immunoblots using Image J software. For cell cycle analysis, cells were treated with 0.1% Vehicle or 10 μM inhibitors for 16 h. 1×10^6 cells were fixed in 70% ethanol for 2 h, treated with 200 μg/ml RNase A (Invitrogen) for 30 minutes, and stained with 20 μg/ml Propidium Iodine (Sigma). All samples were assayed in triplicates. Signal was detected using the Becton Dickson LSRII flow cytometer and cell cycle profiles were analyzed with FloJo.

T47D = experiment: Cell cycle FACS analysis, T47D; format: cell-based, human
Method: Whole cell extracts were prepared and immunoblotted as previously described Dorrello et al., “S6K1- and betaTRCP-mediated Degradation of PDCD4 Promotes Protein Translation and Cell Growth,” Science 314:467-471 (2006), which is hereby incorporated by reference in its entirety. For knockdown of Skp2 or p27, shRNAs were induced with 2 ng/ml doxycycline for 48 hours, with the last 16 hours co-treated with 0.1% Vehicle or 10 μM inhibitors as indicated. For cycloheximide chase, cells were pretreated 16 h with 0.1% Vehicle or 10 μM inhibitors, followed by 20 ng/ml cycloheximide (Sigma) and whole cell extracts collected for each time point. 20 ng/ml cycloheximide (Sigma) was added to each plate and whole cell extract was collected for each time point. Scanning densitometry was performed on immunoblots using Image J software. […] 1×10^6 cells were fixed in 70% ethanol for 2 h, treated with 200 μg/ml RNase A (Invitrogen) for 30 minutes, and stained with 20 μg/ml Propidium Iodine (Sigma). All samples were assayed in triplicates. Signal was detected using the Becton Dickson LSRII flow cytometer and cell cycle profiles were analyzed with FloJo.

p27 in ECC-1 cells = experiment: p27 immunoblot in ECC-1 cells (whole cell lysates, nuclear and cytoplasmic fractions); conditions: ECC-1; for p27 protein levels over Vehicle control: 10 μM for 18 h, whole cell lysates (FIG. 11A); for Increase of nuclear p27 compared to Vehicle control: nuclear fraction (FIG. 11C); for p27 increase over control at optimal concentration: 10 μM (FIG. 11B); for Nuclear p27 increase over the control in presence of E2: 10 μM compound plus 1 nM E2; for Nuclear p27 increase over the control in presence of E2 / Decrease of cytoplasmic p27 levels: 18 h (FIG. 14C); for Decrease of cytoplasmic p27 levels: 10 μM
Method: The endometrial carcinoma cell line (derived from a well-differentiated endometrioid Type I ECA) ECC-1 cells (ATCC, Manassas, Va.) were plated at a density of 3×10^5/well/6-well plate and grown in DMEM:F12 supplemented with 10% FBS (BioWest, Ocala, Fla.). The cell line was passaged in the laboratory for fewer than 6 months after receipt. […] ECAs were plated at a density of 2.2×10^6 cells/6-well Primaria® plates (BD Biosciences, San Jose, Calif.) in McCoys 5A media without phenol red containing 10% charcoal-stripped FBS, 2 mM L-Glutamine (Invitrogen) and antimycotic antibiotic solution (Mediatech, Hendon, Va.).
For subcellular fractionation, following treatments, cells were separated into nuclear and cytoplasmic fractions using the NE-PER kit (Thermo Scientific), and 10 μg cytoplasmic and nuclear protein fractions were loaded onto SDS-PAGE for immunoblotting. […] The membranes were incubated with peroxidase-conjugated goat anti-rabbit or goat anti-mouse secondary antibodies in TBST (1:2000; Thermo Scientific). […] Protein bands were resolved using the SuperSignal West Dura kit (Thermo Scientific), visualized by exposure to X-ray film (HyBlot; Denville Scientific, Denville, N.J.), and following densitometric scanning (Kodak Logic-100), the protein bands were quantified by normalizing to β-actin and compared to the untreated control, and the values represented by the graphs of relative protein levels compared to actin in each well and shown as % of Vehicle control.

ECC-1 cells = experiment: ECC-1 cytotoxicity (trypan blue exclusion); format: cell-based; conditions: 10 μM, 48 h
CyclinE/CDK2 = molecular target: T2, CyclinE/CDK2 (Homo sapiens, UniProt P24941); experiment: CyclinE/CDK2 kinase assay (phospho-T187 p27); format: biochemical; conditions: 50 μM inhibitor
T2 construct: purchased Sigma-Aldrich
Method: as §1

Q52L-Cks1 mutant = molecular target: T3, Q52L-Cks1 mutant (Homo sapiens, UniProt P61024+Q13309, Q52L); experiment: In vitro ubiquitylation assay with Q52L-Cks1 mutant; format: biochemical; conditions: 50 μM compound
T3 construct: made in house; host or cells: cell-free: rabbit reticulocyte lysate (TNT T7 Coupled Reticulocyte Lysate System, Promega) from pcDNA3.1 plasmids
T3 sequence (Q13309 whole entry): as the sequence (Q13309 whole entry) above
T3 sequence (P61024 whole entry Q52L): as the sequence (P61024 whole entry) above, with Q52L counted along it
T3 sequence (P63208 whole entry partner): as the sequence (P63208 whole entry partner) above
T3 sequence (Q13616 whole entry partner): as the sequence (Q13616 whole entry partner) above
T3 sequence (P62877 whole entry partner): as the sequence (P62877 whole entry partner) above
Description: To interrogate the compound-contacting residues on the Skp2-Cks1 interface, mutants of Skp2 and Cks1 were designed based on the in silico dockings. The predicted electrostatic interactions between the positive charge on the NH2 side group in Q52-Cks1 with the COOH-group in C1 and C16 should be lost when mutated to a neutral-charge leucine (FIG. 7B). […] This confirms that the Q52-Cks1 residue is important for only C1 and C16 activity, as predicted by the in silico dockings. […] The Skp2-R294A and the Cks1-R44A/H mutants lacked ubiquitylation activity (FIG. 7C) preventing the interrogation of these residues' contribution to the activity of C2 and C20. […] Thus, the predicted three-dimensional mode of interaction of the compounds with Skp2-Cks1 was validated at a chemical and protein level.
In vitro reconstituted assays were performed as previously described (Dorrello et al., “S6K1- and betaTRCP-mediated Degradation of PDCD4 Promotes Protein Translation and Cell Growth,” Science 314:467-471 (2006), which is hereby incorporated by reference in their entirety) with the exceptions of the use of (1) unlabeled proteins (wild-type and mutant Skp2 and Cks1, p27, Flag-βTrCP, and HA-PDCD4) generated by in vitro transcription-translation (TNT T7 Coupled Reticulocyte Lysate System, Promega); (2) chain elongation with non-methylated ubiquitin; and (3) immunoblotting to detect poly-ubiquitylation. The following reagents were obtained from Boston Biochem: UBE1, His-UbcH3, His-UbcH5c, Ubiquitin, and Ubiquitin Aldehyde. Additional reagents include CDK2/CyclinE1 (Sigma-Aldrich), S6K (Invitrogen), Okadaic acid (Sigma), and DMSO (Sigma-Aldrich). For ubiquitin charging, UBE1 (100 nM) and His-UbcH3 (10 ng/μl) were incubated with ubiquitin (2.5 μg/μl), ATP (2 mM), and 10 μM […] of inhibitors or Vehicle control for 60 min at 30° C. Reactions were stopped in nondenaturing 2× Sample Buffer, with the addition of 10% Beta-mercaptoethanol as indicated, and analyzed by Western blotting.

Row | SMILES | p27 binding to Skp2 (Skp2-p27 interaction) | S phase cells (501 Mel cells) | Cellular phenotype (T47D) | p27 protein levels over Vehicle control (p27 in ECC-1 cells) | Increase of cytoplasm p27 (p27 in ECC-1 cells; 18 h, cytoplasmic fraction (FIG. 11C)) | Increase of nuclear p27 compared to Vehicle control (p27 in ECC-1 cells; 18 h) | Cell death (ECC-1 cells) | CyclinE/CDK2 activity (phospho-T187 p27) (CyclinE/CDK2) | Inhibition of p27 ubiquitylation with Q52L-Cks1 (Q52L-Cks1 mutant) | Levels of Skp2 (p27 in ECC-1 cells) | p27 increase over control at optimal concentration (p27 in ECC-1 cells) | Nuclear p27 increase over the control in presence of E2 (p27 in ECC-1 cells) | Decrease of cytoplasmic p27 levels (p27 in ECC-1 cells) | Cytotoxicity (ECC-1 cells) | Concentration inducing p27 to the same level as the proteasome inhibitor (p27 in ECC-1 cells; 24 hours, compared to 1 μM Lactacystin) | Cytoplasm p27, time course (p27 in ECC-1 cells; by 18 h (FIG. 15A)) | Nuclear p27, time course (p27 in ECC-1 cells; by 18 h (FIG. 15A)) | Amount of p27 interacting with Skp2 (Skp2-p27 interaction; 50 μM, HA-immunoprecipitates of ubiquitylation assays) | G1 phase (T47D; 5 μM for 16 hours) | S phase (T47D; 5 μM for 16 hours)
1 | O=C(O)COc1ccc(C=C2SC(=O)N(CC(=O)c3ccc(Cl)cc3)C2=O)cc1 [Compound C16] | reduce p27 binding to Skp2 | a decrease in S phase cells | no significant cellular phenotype | increase p27 protein levels | 2.7 fold | 2.2 fold | 77% | not blocked | inactive |  |  |  |  |  |  |  |  |  |  | 
2 | O=C(NN=Cc1cc(Br)cc(Br)c1O)C(=Cc1ccccc1O)NC(=O)c1ccccc1 [Compound C20] | reduce p27 binding to Skp2 | a decrease in S phase cells | no significant cellular phenotype | increase p27 protein levels |  | 2.2 fold |  | not blocked | strongly inhibited | do not effect the levels of Skp2 | 2.2 | ~2 fold | approximately 33% | not cytotoxic |  |  |  |  |  | 
3 | COC(=O)C1=C(C)N(c2ccc(Br)cc2)C(=O)C1=Cc1ccccc1O [Compound C2] | reduce p27 binding to Skp2 | a decrease in S phase cells | no significant cellular phenotype | increase p27 protein levels |  | 1.8 fold |  | not blocked | strongly inhibited | do not effect the levels of Skp2 | 2.3 | ~2 fold | approximately 33% | not cytotoxic | ≤ 0.1 µM | half | doubled |  |  | 
4 | O=C(O)COc1ccc(Br)cc1C=C1SC(=S)N(Cc2cccnc2)C1=O [Compound C1] | reduce p27 binding to Skp2 | a decrease in S phase cells |  |  |  |  |  | not blocked | inactive |  |  |  |  |  |  |  |  | reduced the amount of p27 | an increase in G1 phase | a decrease in S phase
